Holding throughout (type): cell-based
The target of one assay is hERG ion channel (Homo sapiens (Human), UniProt Q12809). Nature of the assay: hERG Analysis - Method 1 (IONWORKS HT, CHO-hERG cells). To be noted: ~21° C. The procedure: The hERG-expressing Chinese hamster ovary K1 (CHO) cells described by (Persson, Carlsson, Duker, & Jacobson, 2005) were grown to semi-confluence at 37° C. in a humidified environment (5% CO2) in F-12 Ham medium containing L-glutamine, 10% foetal calf serum (FCS) and 0.6 mg/mL hygromycin (all available from Sigma-Aldrich). Prior to use, the monolayer was washed using a pre-warmed (37° C.) 3 mL aliquot of Versene 1:5,000 (Invitrogen) After aspiration of this solution the flask was incubated at 37° C. in an incubator with a further 2 mL of Versene 1:5,000 for a period of 6 minutes. Cells were then detached from the bottom of the flask by gentle tapping and 10 mL of Dulbecco's Phosphate-Buffered Saline containing calcium (0.9 mM) and magnesium (0.5 mM) (PBS; Invitrogen) was then added to the flask and aspirated into a 15 mL centrifuge tube prior to centrifugation (50 g, for 4 mins). The resulting supernatant was discarded and the pellet gently re-suspended in 3 mL of PBS. A 0.5 mL aliquot of cell suspension was removed and the number of viable cells (based on trypan blue exclusion) was determined in an automated reader (Cedex; Innovatis) so that the cell re-suspension volume can be adjusted with PBS to give the desired final cell concentration. It is the cell concentration at this point in the assay that is quoted when referring to this parameter. CHO-Kv1.5 cells, which were used to adjust the voltage offset on IONWORKS™ HT, were maintained and prepared for use in the same way.
The principles and operation of this device have been described by (Schroeder, Neagle, Trezise, & Worley, 2003). Briefly, the technology is based on a 384-well plate (PATCHPLATE™) in which a recording was attempted in each well by using suction to position and hold a cell on a small hole separating two isolated fluid chambers. Once sealing had taken place, the solution on the underside of the PATCHPLATE™ was changed to one containing amphotericin B. This permeablises the patch of cell membrane covering the hole in each well and, in effect, allowed a perforated, whole-cell patch clamp recording to be made.
A β-test IONWORKS™ HT from Essen Instrument was used. […] (˜21° C.), as follows. The reservoir in the “Buffer” position was loaded with 4 mL of PBS and that in the “Cells” position with the CHO-hERG cell suspension described above. A 96-well plate (V-bottom, Greiner Bio-one) containing the compounds to be tested (at 3-fold above their final test concentration) was placed in the “Plate 1” position and a PATCHPLATE™ was clamped into the PATCHPLATE™ station. […]
In general terms: hERG is a cardiac potassium channel; its block is linked to QT prolongation.

In a further assay the target is human TLR8 (Homo sapiens (Human), UniProt Q9NR97). As to the kind of experiment: Human TLR8 assay (TLR8/NF-kB/SEAPorter HEK 293 Cell Line). As to conditions: SEAP induction, overnight incubation at 37° C., 0.1% DMSO; read-out: TLR8 pEC50 (converted). From the text: TLR8/NF-kB/SEAPorter™ HEK 293 Cell Line (Imgenex Corporation) is a stably co-transfected cell line which expresses full-length human TLR8 and the secreted alkaline phosphatase (SEAP) reporter gene under the transcriptional control of an NF-κB response element. TLR8 expression in this cell line has been tested by flow cytometry. Transfectants with stable expression were selected using the antibiotic blasticidin and geneticin. TLR signaling leads to the translocation of NF-κB and activation of the promoter results in expression of the SEAP gene. TLR8-specific activation was assessed by determining the level of SEAP produced following overnight incubation of the cells at 37° C. with the standard compound in the presence of 0.1% (v/v) dimethylsulfoxide (DMSO). Concentration dependent induction of SEAP production by compounds was expressed as the concentration of compound which produced half of the maximal level of SEAP induction for that compound (EC50).

Another assay deals with hERG potassium channel (Homo sapiens (Human), UniProt Q12809). As to the kind of experiment: hERG Analysis - Method 2 (QPATCH HT, CHO-hERG cells). As to conditions: half-maximal inhibition concentration, 22±2° C. The procedure: The hERG potassium current was measured in a hERG-stably-expressing Chinese hamster ovary K1 (CHO) cells. The experiments were performed using an automated planar patch-clamp system QPATCH HT (Sophion Bioscience A/S). The application of pressure for forming gigaseals and whole-cell patch clamp configuration were established using the QPATCH assay software. Patch-clamp experiments were performed in voltage-clamp mode and whole-cell currents were recorded from individual cells. The following stimulation protocol was applied to investigate the effects of compounds on hERG potassium channel: The membrane potential was held at −80 mV and repetitively (every 15 s) depolarized to +20 mV for 5 s after the pulse to −50 mV for 20 ms served to define the baseline, followed by repolarizing step to −50 mV for 5 s to evaluate of the tail current amplitude. Experiments were conducted at room temperature (22±2° C.).
Effects of compounds were determined from cumulative applications of increasing 4 concentrations and calculated as percent of blocked current. The data points were fitted with Hill equation to calculate half-maximal inhibition concentrations. The test solution includes: Extracellular solution (mM): 2 mM of CaCl2, 1 mM of MgCl2, 10 mM of HEPES, 4 mM of KCl, 145 mM of NaCl, and 10 mM of Glucose; and Intracellular solution (mM): 5.4 mM of CaCl2, 1.8 mM of MgCl2, 10 mM of HEPES, 31 mM of KOH, 10 mM of EGTA, 120 mM of KCl, and 4 mM of ATP.

hERG potassium channel, sequence (Q12809 whole entry): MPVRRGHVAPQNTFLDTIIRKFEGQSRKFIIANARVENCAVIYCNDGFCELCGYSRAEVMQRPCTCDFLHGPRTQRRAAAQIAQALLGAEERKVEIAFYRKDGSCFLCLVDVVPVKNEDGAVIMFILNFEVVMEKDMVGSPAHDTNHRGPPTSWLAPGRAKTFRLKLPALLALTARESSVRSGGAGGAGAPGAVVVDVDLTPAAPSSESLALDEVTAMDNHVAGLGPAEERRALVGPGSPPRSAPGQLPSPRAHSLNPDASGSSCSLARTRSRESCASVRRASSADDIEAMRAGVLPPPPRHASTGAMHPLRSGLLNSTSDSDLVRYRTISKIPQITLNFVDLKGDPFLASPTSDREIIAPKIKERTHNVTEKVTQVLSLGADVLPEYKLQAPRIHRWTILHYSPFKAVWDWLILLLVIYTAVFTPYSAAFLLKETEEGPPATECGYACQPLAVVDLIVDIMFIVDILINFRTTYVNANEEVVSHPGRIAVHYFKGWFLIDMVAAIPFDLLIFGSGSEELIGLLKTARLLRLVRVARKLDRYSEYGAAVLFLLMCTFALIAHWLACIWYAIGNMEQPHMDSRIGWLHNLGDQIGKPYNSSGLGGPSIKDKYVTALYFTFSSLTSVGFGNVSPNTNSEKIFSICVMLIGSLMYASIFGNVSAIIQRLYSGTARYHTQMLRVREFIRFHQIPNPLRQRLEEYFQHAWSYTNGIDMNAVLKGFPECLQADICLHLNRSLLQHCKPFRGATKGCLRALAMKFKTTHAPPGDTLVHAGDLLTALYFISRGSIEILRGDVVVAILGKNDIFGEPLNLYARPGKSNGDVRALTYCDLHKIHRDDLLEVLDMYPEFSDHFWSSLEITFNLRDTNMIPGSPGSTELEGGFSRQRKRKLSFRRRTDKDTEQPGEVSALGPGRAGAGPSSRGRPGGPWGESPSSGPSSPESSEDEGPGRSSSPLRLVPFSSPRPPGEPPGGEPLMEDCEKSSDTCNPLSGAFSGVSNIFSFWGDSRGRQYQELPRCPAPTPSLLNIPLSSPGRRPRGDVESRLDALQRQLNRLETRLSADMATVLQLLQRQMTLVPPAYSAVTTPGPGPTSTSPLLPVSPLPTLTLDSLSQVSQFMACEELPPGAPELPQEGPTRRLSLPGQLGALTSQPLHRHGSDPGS
hERG ion channel, sequence (Q12809 whole entry): as above
human TLR8, sequence (Q9NR97 27-1041): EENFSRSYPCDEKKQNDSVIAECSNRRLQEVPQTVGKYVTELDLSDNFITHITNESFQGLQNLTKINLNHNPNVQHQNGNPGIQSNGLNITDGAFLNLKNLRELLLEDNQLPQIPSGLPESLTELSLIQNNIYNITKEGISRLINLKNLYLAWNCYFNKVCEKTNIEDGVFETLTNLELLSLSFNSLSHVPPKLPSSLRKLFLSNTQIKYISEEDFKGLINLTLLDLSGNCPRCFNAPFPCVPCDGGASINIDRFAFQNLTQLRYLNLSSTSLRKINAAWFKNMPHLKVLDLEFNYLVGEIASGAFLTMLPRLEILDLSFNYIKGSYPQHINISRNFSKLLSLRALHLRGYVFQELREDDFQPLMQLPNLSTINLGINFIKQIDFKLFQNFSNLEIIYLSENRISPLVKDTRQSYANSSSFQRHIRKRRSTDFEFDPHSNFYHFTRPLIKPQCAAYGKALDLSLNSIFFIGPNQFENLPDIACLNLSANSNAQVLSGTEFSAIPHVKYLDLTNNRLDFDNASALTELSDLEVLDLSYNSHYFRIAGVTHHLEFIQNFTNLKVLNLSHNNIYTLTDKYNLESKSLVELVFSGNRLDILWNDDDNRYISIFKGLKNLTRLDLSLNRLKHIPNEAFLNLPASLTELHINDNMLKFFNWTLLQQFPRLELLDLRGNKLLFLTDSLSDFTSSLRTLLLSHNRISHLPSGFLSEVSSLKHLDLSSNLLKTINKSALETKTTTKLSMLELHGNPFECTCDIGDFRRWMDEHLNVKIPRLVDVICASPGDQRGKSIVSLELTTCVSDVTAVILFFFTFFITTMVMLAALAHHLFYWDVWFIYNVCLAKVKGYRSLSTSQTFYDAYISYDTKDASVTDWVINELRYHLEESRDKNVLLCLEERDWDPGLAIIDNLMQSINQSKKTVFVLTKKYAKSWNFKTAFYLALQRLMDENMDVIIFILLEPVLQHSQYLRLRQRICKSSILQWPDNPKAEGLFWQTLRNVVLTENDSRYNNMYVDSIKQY

For `CCC[C@@H](CCO)Nc1nc(N)nc(C)c1Cc1ccc(CN(CC(=O)O)CC(F)F)cc1OC` [Example 3, (S)-2-((4-((2-amino-4-(1-hydroxyhexan-3-ylamino)-6-methylpyrimidin-5-yl)methyl)-3-methoxybenzyl)(2,2-difluoroethyl)amino)acetic acid], the IC50 against hERG ion channel was greater than 33 µM; against hERG potassium channel, greater than 10 µM. The EC50 at human TLR8 is greater than 10 µM.

The IC50 is the concentration needed to halve the response being measured.

Source of the values: patent publication US10150743B2, “Carboxylic acid compounds” (priority 2012, dated 2018).
